Data set [1] concerns the target T1, RAC-alpha serine/threonine-protein kinase (Homo sapiens, UniProt P31749). Description: Binding affinity to human AKT1-PH domain assessed as enthalpy change by isothermal titration calorimetric analysis. Background: Isothermal titration calorimetry measures the heat released or taken up as one component is titrated into another.
Data set [2] addresses T1, RAC-alpha serine/threonine-protein kinase. Description: Binding affinity to human AKT1-PH domain assessed as entropy change by isothermal titration calorimetric analysis.
Data set [3] has the same target. The experiment in a line: Binding affinity to human AKT1-PH domain assessed as change in beta-sheet content at 1:3 molar ratio of protein to compound by CD spectra analysis.
The target is the same in data set [4]. The experiment in a line: Antagonist activity at human AKT1-PH domain (1 to 121 residues) assessed as reduction of AKT1-PH interaction with PC/PE/PS/PI(3,4,5)P3 at 50 uM after 30 mins by competitive SPR analysis relative to control. (In general: Surface plasmon resonance follows binding to a sensor surface in real time, without labels.)
A short description of data set [5]: Cytotoxicity against human MDA-MB-231 cells assessed as inhibition of cell proliferation at 100 uM after 48 hrs by MTT assay. The data set is classed as cell-based. Background: Tetrazolium assays rely on reduction of a dye to a coloured formazan, in cell work by metabolically active cells.
Data set [6] has as its target T1, RAC-alpha serine/threonine-protein kinase. Description: Antagonist activity at human AKT1-PH domain (1 to 121 residues) assessed as reduction of AKT1-PH interaction with PC/PE/PS/PI(3,4,5)P3 after 30 mins by competitive SPR analysis.
The target in the next data set is T2, Cytohesin-3 (Mus musculus, UniProt O08967).
T2 sequence (O08967 whole entry): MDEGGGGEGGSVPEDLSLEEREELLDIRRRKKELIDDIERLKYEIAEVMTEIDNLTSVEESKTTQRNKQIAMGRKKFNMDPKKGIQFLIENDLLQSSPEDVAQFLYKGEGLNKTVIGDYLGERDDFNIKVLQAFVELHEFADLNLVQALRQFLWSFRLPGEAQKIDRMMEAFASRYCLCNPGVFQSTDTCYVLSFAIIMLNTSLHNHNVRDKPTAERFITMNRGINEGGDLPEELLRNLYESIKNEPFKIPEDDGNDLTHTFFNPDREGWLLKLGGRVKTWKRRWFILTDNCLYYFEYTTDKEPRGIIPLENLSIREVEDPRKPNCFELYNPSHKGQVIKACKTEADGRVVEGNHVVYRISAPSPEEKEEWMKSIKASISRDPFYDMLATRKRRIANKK
The experiment in a line: Antagonist activity at mouse GRP1-PH domain (1 to 127 residues) assessed as reduction in PI(3,4,5)P3/GRP1-PH interaction after 30 mins by competitive SPR analysis.

A short description of data set [7]: Effect on surface charge of PC/PE/PS/PI(3,4,5)P3 liposome by measuring zeta-potential by light scattering spectrometric analysis. The format is physicochemical. Particulars: artificial membrane.
The target in data set [8] is T3, Tyrosine-protein kinase BTK (Homo sapiens, UniProt Q06187). Description: Antagonist activity at human BTK-PH domain (2 to 170 residues) assessed as reduction in PI(3,4,5)P3/BTK-PH interaction after 30 mins by competitive SPR analysis.
The target of data set [9] is T3, Tyrosine-protein kinase BTK. The experiment in a line: Antagonist activity at human BTK-PH domain (2 to 170 residues) assessed as reduction in PI(3,4,5)P3/BTK-PH interaction at 50 uM after 30 mins by competitive SPR analysis relative to control.
Data set [10] deals with Pleckstrin homology domain-containing family A member 1 (Homo sapiens, UniProt Q9HB21). Description: Antagonist activity at human Tapp1-PH domain (180 to 305 residues) assessed as reduction in PI(3,4)P2/Tapp1-PH interaction after 30 mins by competitive SPR analysis.
Data set [11] can be described thus: Effect on membrane fluidity in PC/PE/PS liposome assessed as DPH probe anisotropy changes at 15 uM incubated for 30 mins by fluorescence anisotropic analysis. The format is ADME. Particulars: artificial membrane, 0.5 h.
Data set [12] has as its target T1, RAC-alpha serine/threonine-protein kinase. Description: Antagonist activity at human AKT1-PH domain (1 to 121 residues) assessed as reduction in PI(3,4,5)P3/AKT1-PH interaction by FRET analysis.
The target in data set [13] is T4, Cytohesin-3 (Mus musculus) (UniProt O08967).
T4 sequence (whole entry): T2 sequence (O08967 whole entry)
Description: Antagonist activity at mouse GRP1-PH domain (1 to 127 residues) assessed as reduction in PI(3,4,5)P3/GRP1-PH interaction at 50 uM after 30 mins by competitive SPR analysis relative to control.

In data set [14] the target is T1, RAC-alpha serine/threonine-protein kinase. Description: Induction of human AKT1-PH aggregration assessed as mean hydrodynamic diameter after 10 mins dynamic light scattering assay.
Data set [15] has the same target. Description: Antagonist activity at GST-tagged human AKT1-PH domain (1 to 121 residues) assessed as reduction in PC/PE/PS/PI(3,4,5)P3/AKT1-PH interaction at 50 uM by liposome pull-down assay.
Data set [16] can be described thus: Effect on membrane fluidity in PC/PE/PS liposome assessed as NBD-PE probe anisotropy changes at 15 uM incubated for 30 mins by fluorescence anisotropic analysis. The format is ADME. To be noted: artificial membrane, 0.5 h.
Data set [17] has as its target T5, 1-phosphatidylinositol 4,5-bisphosphate phosphodiesterase delta-1 (Rattus norvegicus, UniProt P10688).
T5 sequence (P10688 whole entry): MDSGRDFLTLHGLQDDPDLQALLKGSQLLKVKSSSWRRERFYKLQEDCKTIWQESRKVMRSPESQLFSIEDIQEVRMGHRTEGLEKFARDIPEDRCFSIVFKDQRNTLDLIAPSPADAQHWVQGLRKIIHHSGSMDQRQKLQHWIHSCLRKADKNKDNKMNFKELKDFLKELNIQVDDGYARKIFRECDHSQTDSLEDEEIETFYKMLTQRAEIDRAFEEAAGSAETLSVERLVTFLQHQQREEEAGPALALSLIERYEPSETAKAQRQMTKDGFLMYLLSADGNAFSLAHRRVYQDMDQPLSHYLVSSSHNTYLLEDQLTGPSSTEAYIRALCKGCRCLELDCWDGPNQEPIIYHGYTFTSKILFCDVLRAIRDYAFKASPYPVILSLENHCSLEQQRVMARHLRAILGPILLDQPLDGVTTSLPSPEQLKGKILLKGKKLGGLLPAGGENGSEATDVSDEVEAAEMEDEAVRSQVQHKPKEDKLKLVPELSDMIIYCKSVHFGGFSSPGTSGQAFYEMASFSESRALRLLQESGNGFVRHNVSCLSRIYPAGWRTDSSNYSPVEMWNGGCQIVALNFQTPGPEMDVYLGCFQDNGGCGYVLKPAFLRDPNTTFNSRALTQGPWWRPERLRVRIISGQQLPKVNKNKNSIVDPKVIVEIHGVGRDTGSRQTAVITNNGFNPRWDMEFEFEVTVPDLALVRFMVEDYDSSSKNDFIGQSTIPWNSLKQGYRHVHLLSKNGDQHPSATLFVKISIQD
Description: Antagonist activity at rat PLCdelta1-PH domain assessed as reduction in PI(4,5)P2/PLCdelta1-PH interaction after 30 mins by competitive SPR analysis.

The nature of data set [18]: Cytotoxicity against human MDA-MB-231 cells assessed as inhibition of cell proliferation at 1 to 100 uM after 48 hrs by MTT assay. The format is cell-based. To be noted: read-out: %max.
For data set [19], the target named is T1, RAC-alpha serine/threonine-protein kinase. Description: Inhibition of AKT1 phosphorylation at Thr-308 in human MDA-MB-231 cells at 25 uM after 48 hrs by immunoblot analysis. The data set is classed as cell-based.

Activity calls are given as the source filed them. No cut-off for these calls is given here.

T3 sequence (Q06187 whole entry, the tested form may be a part): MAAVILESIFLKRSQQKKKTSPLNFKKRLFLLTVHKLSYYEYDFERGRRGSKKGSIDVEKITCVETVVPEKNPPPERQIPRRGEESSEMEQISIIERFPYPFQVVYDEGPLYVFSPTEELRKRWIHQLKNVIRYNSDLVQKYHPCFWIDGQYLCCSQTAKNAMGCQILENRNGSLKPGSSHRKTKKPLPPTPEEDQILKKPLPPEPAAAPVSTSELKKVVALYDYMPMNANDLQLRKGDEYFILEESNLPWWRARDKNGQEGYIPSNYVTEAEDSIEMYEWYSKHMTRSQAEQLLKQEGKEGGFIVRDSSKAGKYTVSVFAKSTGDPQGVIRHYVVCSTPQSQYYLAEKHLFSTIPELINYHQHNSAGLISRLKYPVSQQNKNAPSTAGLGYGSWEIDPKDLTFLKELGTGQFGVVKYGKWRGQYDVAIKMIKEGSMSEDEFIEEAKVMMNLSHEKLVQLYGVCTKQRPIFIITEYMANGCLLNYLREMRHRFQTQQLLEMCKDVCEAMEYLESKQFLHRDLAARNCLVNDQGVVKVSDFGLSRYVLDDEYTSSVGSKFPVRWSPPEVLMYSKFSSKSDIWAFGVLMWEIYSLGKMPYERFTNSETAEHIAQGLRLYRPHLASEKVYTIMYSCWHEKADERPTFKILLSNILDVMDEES
T1 sequence (P31749 whole entry, the tested form may be a part): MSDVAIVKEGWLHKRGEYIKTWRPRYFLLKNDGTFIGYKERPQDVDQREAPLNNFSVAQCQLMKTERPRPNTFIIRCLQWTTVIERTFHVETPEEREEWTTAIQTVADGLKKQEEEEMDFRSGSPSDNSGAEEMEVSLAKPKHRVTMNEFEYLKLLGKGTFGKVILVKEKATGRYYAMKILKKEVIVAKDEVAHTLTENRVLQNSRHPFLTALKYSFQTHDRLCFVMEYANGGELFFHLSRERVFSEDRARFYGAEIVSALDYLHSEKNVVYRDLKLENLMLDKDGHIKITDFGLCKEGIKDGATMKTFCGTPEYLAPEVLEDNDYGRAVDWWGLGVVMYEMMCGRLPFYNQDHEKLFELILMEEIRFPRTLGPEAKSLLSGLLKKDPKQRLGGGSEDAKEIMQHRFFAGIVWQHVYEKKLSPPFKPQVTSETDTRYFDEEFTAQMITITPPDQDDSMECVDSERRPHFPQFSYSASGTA
Pleckstrin homology domain-containing family A member 1, sequence (Q9HB21 whole entry, the tested form may be a part): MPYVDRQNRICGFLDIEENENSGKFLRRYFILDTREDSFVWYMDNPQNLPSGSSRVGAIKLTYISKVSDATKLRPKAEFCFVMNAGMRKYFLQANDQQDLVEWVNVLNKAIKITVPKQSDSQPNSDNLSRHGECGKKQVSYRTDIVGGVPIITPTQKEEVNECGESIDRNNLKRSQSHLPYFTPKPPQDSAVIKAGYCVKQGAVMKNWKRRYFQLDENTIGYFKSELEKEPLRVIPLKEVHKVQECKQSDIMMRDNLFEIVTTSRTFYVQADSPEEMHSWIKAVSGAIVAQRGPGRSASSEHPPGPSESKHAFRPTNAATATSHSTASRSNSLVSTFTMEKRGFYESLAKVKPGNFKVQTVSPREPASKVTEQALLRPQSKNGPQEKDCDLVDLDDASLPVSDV

Consider `N=C(N)NC(=N)N/C(=N/O)c1nonc1N`, for which the result in data set [1], in data set [2] and in data set [3] was Active. Moreover, the inhibition in [4] is 95%; in [6] it was “Dose-dependent effect”; in [9], 40%; in data set [12], “Dose-dependent effect”; in [13], 56%. For the same compound, the inhibition at 48 h, 100 µM in data set [5] was 10%. The half-inhibitory concentration (IC50) in data set [6] amounted to 1.85 µM; at Cytohesin-3 it was 24.9 µM; in data set [8], 10.9 µM; in data set [10], 28 µM; in data set [17] it was 54 µM. For the same compound, the Activity result in data set [7] is “Not Active”; in [11] it was “Not Active”; in data set [14], 190 nm; in data set [16], “Active”. In addition, in data set [15], the inhibition entry was “Active”.

For `N=C(N/C(=N/O)c1nonc1N)c1ccccc1N`, the Emax at 48 h in data set [18] came out at 20%. The inhibition in data set [4] turned out to be 74%; in data set [9], 79%; in data set [13], 59%. Moreover, the values for the IC50 (in data set [6]; on Cytohesin-3; in data set [8]) were 8.61 µM, 16.6 µM and 3.18 µM, respectively. The Activity result was “Not Active” in [11] and “Active” in data set [16].

For the compound `N=C(N/C(=N/O)c1nonc1N)N1CCCN=C1N`, in data set [18], the Emax at 48 h was 20%. In addition, the result in data set [1], in data set [2] and in [3] was Active. For the same compound, the inhibition in data set [4] is 92%; in data set [6], “Dose-dependent effect”; in data set [9], 11%; in [12], “Dose-dependent effect”; in [13] it was 67%. The IC50 in data set [6] turned out to be 3.23 µM; at Cytohesin-3, 11.5 µM; in data set [8], 46.5 µM; in data set [10], 5 µM; in [17] it was 28 µM. The Activity result in [7] was “Not Active”; in data set [11] it was “Not Active”; in [14], 190 nm; in data set [16] it was “Active”. Besides, the inhibition result in data set [19] and in [15] was “Active” each time.

Regarding `N=C(N/C(=N/O)c1nonc1N)c1ccccc1Br`, in data set [18], the Emax at 48 h amounted to 20%. Further, in data set [4], the inhibition worked out at 80%. Also, in data set [6], the IC50 is 16.4 µM. For the same compound, the Activity entry is given as “Not Active” in data set [11] and “Active” in data set [16].

For `N=C(N/C(=N/O)c1nonc1N)c1ccccc1`, the Emax at 48 h in data set [18] was found to be 20%. Besides, the inhibition in data set [4] was determined as 54%; in data set [13], 55%. In addition, the figures for the IC50 (in data set [6]; on Cytohesin-3) were 7.19 µM and 11.5 µM, respectively. Moreover, the Activity entry in data set [11] is given as “Not Active”; in data set [16], “Active”.

By inhibition is commonly meant the share of the control response that was lost under treatment. As usually defined, the IC50 is the concentration needed to halve the response being measured.

The values are drawn from ChEMBL document CHEMBL3763051, “Inhibition of phosphatidylinositol-3,4,5-trisphosphate binding to the AKT pleckstrin homology domain by 4-amino-1,2,5-oxadiazole derivatives” (Medchemcomm, 2015).
